Experimental data reported in patent US8222404B2, “[1,2,4]Thiadiazin-3-yl acetic acid compound and methods of making the acetic acid compound” (Anadys Pharmaceuticals, Inc., priority 2008, dated 2012).

System: HCV Huh-luc/neo-ET replicon cells
Assay: Luciferase-Based HCV Replicon Assay (EC50 (1b))
Type: cell-based
Conditions: 72 hours exposure, luciferase activity
Description: Luciferase-Based HCV Replicon Assay Protocol (EC50 (1b))
The cell culture component of the assay was performed essentially as described by Bartenschlager et al., Hepatology 2002, 35, 694-703, wherein exponentially growing HCV Huh-luc/neo-ET replicon cells were seeded at 6×10^3 cells/well in 96 well assay plate. 24 hours later the cells were treated with various concentrations of compound in triplicate. After 72 hours exposure to the compound, the luciferase activity in the wells was determined using Bright-Glo reagent (Promega, Madison, Wis.) with a luminometer (Wallac 1420 Multilabel HTS Counter Victor 2). The background control was replicon cells treated with 100 nM BILN-2061, an inhibitor of the HCV protease. % Inhibition was determined for each compound concentration in relation to the negative (no compound) control to calculate the EC50 (1b).

CS(=O)(=O)NCc1csc2c1S(=O)(=O)N=C(C1=C(O)C3CCCC3N(Cc3ccc(F)cc3)C1=O)N2 (racemic) [Example 2, (rac-cis)-N-{3-[1-(4-Fluoro-benzyl)-4-hydroxy-2-oxo-2,4a,5,6,7,7a-hexahydro-1H-[1]pyrindin-3-yl]-1,1-dioxo-1,4-dihydro-1λ^6-thieno[2,3-e][1,2,4]thiadiazin-7-ylmethyl}-methanesulfonamide]
EC50 (Hepatitis C virus): 5 to 20 nM

CS(=O)(=O)NCc1csc2c1S(=O)(=O)N=C(C1=C(O)CC(C3CC3)N(Cc3ccc(F)cc3)C1=O)N2 (racemic) [Example 4, rac-N-{3-[6-Cyclopropyl-1-(4-fluoro-benzyl)-4-hydroxy-2-oxo-1,2,5,6-tetrahydro-pyridin-3-yl]-1,1-dioxo-1,4-dihydro-1λ^6-thieno[2,3-e][1,2,4]thiadiazin-7-ylmethyl}-methanesulfonamide]
EC50 (Hepatitis C virus): 100 to 1000 nM

CCCC1CC(O)=C(C2=NS(=O)(=O)c3c(CNS(C)(=O)=O)csc3N2)C(=O)N1Cc1ccc(F)cc1 (racemic) [Example 5, rac-N-{3-[1-(4-Fluoro-benzyl)-4-hydroxy-2-oxo-6-propyl-1,2,5,6-tetrahydro-pyridin-3-yl]-1,1-dioxo-1,4-dihydro-1λ^6-thieno[2,3-e][1,2,4]thiadiazin-7-ylmethyl}-methanesulfonamide]
EC50 (Hepatitis C virus): 100 to 1000 nM

CS(=O)(=O)NCc1csc2c1S(=O)(=O)N=C(C1=C(O)CC(C3CCC3)N(Cc3ccc(F)cc3)C1=O)N2 (racemic) [Example 6, rac-N-{3-[6-Cyclobutyl-1-(4-fluoro-benzyl)-4-hydroxy-2-oxo-1,2,5,6-tetrahydro-pyridin-3-yl]-1,1-dioxo-1,4-dihydro-1λ^6-thieno[2,3-e][1,2,4]thiadiazin-7-ylmethyl}-methanesulfonamide]
EC50 (Hepatitis C virus): 100 to 1000 nM

CC(C)CC1CC(O)=C(C2=NS(=O)(=O)c3c(CNS(C)(=O)=O)csc3N2)C(=O)N1Cc1ccc(F)cc1 (racemic) [Example 7, rac-N-{3-[1-(4-Fluoro-benzyl)-4-hydroxy-6-isobutyl-2-oxo-1,2,5,6-tetrahydro-pyridin-3-yl]-1,1-dioxo-1,4-dihydro-1λ^6-thieno[2,3-e][1,2,4]thiadiazin-7-ylmethyl}-methanesulfonamide]
EC50 (Hepatitis C virus): 100 to 1000 nM

CC(C)C1CC(O)=C(C2=NS(=O)(=O)c3c(CNS(C)(=O)=O)csc3N2)C(=O)N1Cc1ccc(F)cc1 (racemic) [Example 8, rac-N-{3-[1-(4-Fluoro-benzyl)-4-hydroxy-6-isopropyl-2-oxo-1,2,5,6-tetrahydro-pyridin-3-yl]-1,1-dioxo-1,4-dihydro-1λ^6-thieno[2,3-e][1,2,4]thiadiazin-7-ylmethyl}-methanesulfonamide]
EC50 (Hepatitis C virus): 20 to 100 nM

CS(=O)(=O)NCc1csc2c1S(=O)(=O)N=C(C1=C(O)CC(C3CCCC3)N(Cc3ccc(F)cc3)C1=O)N2 (racemic) [Example 9, rac-N-{3-[6-Cyclopentyl-1-(4-fluoro-benzyl)-4-hydroxy-2-oxo-1,2,5,6-tetrahydro-pyridin-3-yl]-1,1-dioxo-1,4-dihydro-1λ^6-thieno[2,3-e][1,2,4]thiadiazin-7-ylmethyl}-methanesulfonamide]
EC50 (Hepatitis C virus): 100 to 1000 nM

CC1CN(Cc2ccc(F)cc2)C(=O)C(C2=NS(=O)(=O)c3c(CNS(C)(=O)=O)csc3N2)=C1O (racemic) [Example 10, rac-N-{3-[1-(4-Fluoro-benzyl)-4-hydroxy-5-methyl-2-oxo-1,2,5,6-tetrahydro-pyridin-3-yl]-1,1-dioxo-1,4-dihydro-1λ^6-thieno[2,3-e][1,2,4]thiadiazin-7-ylmethyl}-methanesulfonamide]
EC50 (Hepatitis C virus): 100 to 1000 nM

CS(=O)(=O)NCc1csc2c1S(=O)(=O)N=C(C1=C(O)C(Cc3ccccc3)CN(Cc3ccc(F)cc3)C1=O)N2 (racemic) [Example 12, rac-N-{3-[5-Benzyl-1-(4-fluoro-benzyl)-4-hydroxy-2-oxo-1,2,5,6-tetrahydro-pyridin-3-yl]-1,1-dioxo-1,4-dihydro-1λ^6-thieno[2,3-e][1,2,4]thiadiazin-7-ylmethyl}-methanesulfonamide]
EC50 (Hepatitis C virus): > 1000 nM

CC(C)C1CN(Cc2ccc(F)cc2)C(=O)C(C2=NS(=O)(=O)c3c(CNS(C)(=O)=O)csc3N2)=C1O (racemic) [Example 13, rac-N-{3-[1-(4-Fluoro-benzyl)-4-hydroxy-5-isopropyl-2-oxo-1,2,5,6-tetrahydro-pyridin-3-yl]-1,1-dioxo-1,4-dihydro-1λ^6-thieno[2,3-e][1,2,4]thiadiazin-7-ylmethyl}-methanesulfonamide]
EC50 (Hepatitis C virus): 100 to 1000 nM

CC(C)(C)C1CN(Cc2ccc(F)cc2)C(=O)C(C2=NS(=O)(=O)c3c(CNS(C)(=O)=O)csc3N2)=C1O (racemic) [Example 14, rac-N-{3-[5-tert-Butyl-1-(4-fluoro-benzyl)-4-hydroxy-2-oxo-1,2,5,6-tetrahydro-pyridin-3-yl]-1,1-dioxo-1,4-dihydro-1λ^6-thieno[2,3-e][1,2,4]thiadiazin-7-ylmethyl}-methanesulfonamide]
EC50 (Hepatitis C virus): 5 to 20 nM

CCCC1CN(Cc2ccc(F)cc2)C(=O)C(C2=NS(=O)(=O)c3c(CNS(C)(=O)=O)csc3N2)=C1O (racemic) [Example 15, rac-N-{3-[1-(4-Fluoro-benzyl)-4-hydroxy-2-oxo-5-propyl-1,2,5,6-tetrahydro-pyridin-3-yl]-1,1-dioxo-1,4-dihydro-1λ^6-thieno[2,3-e][1,2,4]thiadiazin-7-ylmethyl}-methanesulfonamide]
EC50 (Hepatitis C virus): 100 to 1000 nM

CS(=O)(=O)NCc1csc2c1S(=O)(=O)N=C(C1=C(O)C(C3CCCC3)CN(Cc3ccc(F)cc3)C1=O)N2 (racemic) [Example 16, rac-N-{3-[5-Cyclopentyl-1-(4-fluoro-benzyl)-4-hydroxy-2-oxo-1,2,5,6-tetrahydro-pyridin-3-yl]-1,1-dioxo-1,4-dihydro-1λ^6-thieno[2,3-e][1,2,4]thiadiazin-7-ylmethyl}-methanesulfonamide]
EC50 (Hepatitis C virus): 20 to 100 nM

CC(C)CC1CN(Cc2ccc(F)cc2)C(=O)C(C2=NS(=O)(=O)c3c(CNS(C)(=O)=O)csc3N2)=C1O (racemic) [Example 17, rac-N-{3-[1-(4-Fluoro-benzyl)-4-hydroxy-5-isobutyl-2-oxo-1,2,5,6-tetrahydro-pyridin-3-yl]-1,1-dioxo-1,4-dihydro-1λ^6-thieno[2,3-e][1,2,4]thiadiazin-7-ylmethyl}-methanesulfonamide]
EC50 (Hepatitis C virus): 100 to 1000 nM

CCC1CN(Cc2ccc(F)cc2)C(=O)C(C2=NS(=O)(=O)c3c(CNS(C)(=O)=O)csc3N2)=C1O (racemic) [Example 18, rac-N-{3-[5-Ethyl-1-(4-fluoro-benzyl)-4-hydroxy-2-oxo-1,2,5,6-tetrahydro-pyridin-3-yl]-1,1-dioxo-1,4-dihydro-1λ^6-thieno[2,3-e][1,2,4]thiadiazin-7-ylmethyl}-methanesulfonamide]
EC50 (Hepatitis C virus): 100 to 1000 nM

CC(C)CCC1(C)CN(C2CC2)C(=O)C(C2=NS(=O)(=O)c3c(CNS(C)(=O)=O)csc3N2)=C1O (racemic) [Example 19, rac-N-{3-[1-Cyclopropyl-4-hydroxy-5-methyl-5-(3-methyl-butyl)-2-oxo-1,2,5,6-tetrahydro-pyridin-3-yl]-1,1-dioxo-1,4-dihydro-1λ^6-thieno[2,3-e][1,2,4]thiadiazin-7-ylmethyl}-methanesulfonamide]
EC50 (Hepatitis C virus): 100 to 1000 nM

CC(C)CCC1(C)CN(C2CCC2)C(=O)C(C2=NS(=O)(=O)c3c(CNS(C)(=O)=O)csc3N2)=C1O (racemic) [Example 20, rac-N-{3-[1-Cyclobutyl-4-hydroxy-5-methyl-5-(3-methyl-butyl)-2-oxo-1,2,5,6-tetrahydro-pyridin-3-yl]-1,1-dioxo-1,4-dihydro-1λ^6-thieno[2,3-e][1,2,4]thiadiazin-7-ylmethyl {-methanesulfonamide]
EC50 (Hepatitis C virus): 100 to 1000 nM

CC(C)CCC1(C)CN(C2CCCC2)C(=O)C(C2=NS(=O)(=O)c3c(CNS(C)(=O)=O)csc3N2)=C1O (racemic) [Example 21, rac-N-{3-[1-Cyclopentyl-4-hydroxy-5-methyl-5-(3-methyl-butyl)-2-oxo-1,2,5,6-tetrahydro-pyridin-3-yl]-1,1-dioxo-1,4-dihydro-1λ^6-thieno[2,3-e][1,2,4]thiadiazin-7-ylmethyl}-methanesulfonamide]
EC50 (Hepatitis C virus): 100 to 1000 nM

CS(=O)(=O)NCc1csc2c1S(=O)(=O)N=C(C1=C(O)C3C4CCC(C5CC54)C3N(Cc3ccc(F)cc3)C1=O)N2 (racemic) [Example 22, (rac-di-endo)-N-{3-[3-(4-Fluoro-benzyl)-6-hydroxy-4-oxo-3-aza-tetracyclo[6.3.2.0^2,7.0^9,11]tridec-5-en-5-yl]-1,1-dioxo-1,4-dihydro-1λ^6-thieno[2,3-e][1,2,4]thiadiazin-7-ylmethyl}-methanesulfonamide]
EC50 (Hepatitis C virus): ≤ 5 nM

CS(=O)(=O)NCc1csc2c1S(=O)(=O)N=C(C1=C(O)C3C4CCC(C5CC54)C3N(Cc3ccc(F)cc3)C1=O)N2 (racemic) [Example 23, (rac-di-exo)-N-{3-[3-(4-Fluoro-benzyl)-6-hydroxy-4-oxo-3-aza-tetracyclo[6.3.2.0^2,7.0^9,11]tridec-5-en-5-yl]-1,1-dioxo-1,4-dihydro-1λ^6-thieno[2,3-e][1,2,4]thiadiazin-7-ylmethyl}-methanesulfonamide]
EC50: ≤ 5 nM

CC(C)(C)CCN1C(=O)C(C2=NS(=O)(=O)c3c(CNS(C)(=O)=O)csc3N2)=C(O)C2C3CCC(C4CC43)C21 (racemic) [Example 24, (rac-di-endo)-N-{3-[3-(3,3-Dimethyl-butyl)-6-hydroxy-4-oxo-3-aza-tetracyclo[6.3.2.0^2,7.0^9,11]tridec-5-en-5-yl]-1,1-dioxo-1,4-dihydro-1λ^6-thieno[2,3-e][1,2,4]thiadiazin-7-ylmethyl}-methanesulfonamide]
EC50 (Hepatitis C virus): ≤ 5 nM
